Test results published in US20250186503A1, “METHODS AND COMBINATIONS FOR TREATMENT AND T CELL MODULATION” (Juno Therapeutics, Inc., priority 2018, published 2025).

Legend:
[1] = system: A549 CD19+ tumor spheroids; assay: Rescue of chronically stimulated anti-CD19 CAR T cells rechallenged with A549 CD19+ tumor spheroids; assay type: cell-based, human
Protocol: Anti-CD19 CAR-expressing T cell compositions (containing CD4+ and CD8+ T cells combined at a 1:1 ratio) were generated from three different healthy donors substantially as described in Example 14. To subject cells to chronic stimulation conditions, the CAR+ T cells were incubated with plate-bound anti-idiotypic (anti-ID) antibody (see e.g. WO2018/023100), and incubated at 37° C. for a period of 6 days. […] The A549 CD19+tumor spheroids were labeled with a dye to permit monitoring of tumor cell lysis by microscopy during the assay. Freshly thawed anti-CD19 CAR-expressing T cells that had not been subjected to the chronic stimulatory conditions were incubated with the spheroids in parallel as controls. Cells were assessed at various times for cytolytic function, CAR T cell number and cytokine production.

[2] = system: Raji and Granta-519 tumor cells; assay: CAR T function against Raji and Granta-519 tumor cells after concurrent treatment during chronic stimulation; assay type: cell-based, human; parameters: dose or concentration left out as unconfirmed
[3] = system: Granta-519 tumor spheroids; assay: Granta-519 tumor spheroids, concurrent versus rescue treatment of long-term stimulated CAR T cells; assay type: cell-based, human; parameters: cytokine levels at day 5: dose or concentration left out as unconfirmed
Protocol: The long-term stimulated anti-CD19 CAR-expressing T cells were co-cultured by incubation with Granta-519 tumor spheroids and cells were assessed at various time points for cytolytic function and cytokine function. During concurrent treatments Compound 1 was present during the long-term stimulation but was not present during the co-culture with target cells. During the rescue treatment Compound 1 was not present during the long-term stimulation but was present during the co-culture with target cells.

RL CD19+ tumor cells = assay: Acute cytolytic activity, anti-CD19 CAR T cells co-cultured with RL CD19+ tumor cells; assay type: cell-based
Protocol: Acute cytolytic activity was measured by tumor cell number over time.

[4] = system: IMiD/CELMoD resistant cell line DF-15R; assay: Rescue of chronically stimulated anti-BCMA CAR T cells rechallenged with DF-15R; assay type: cell-based; settings: rechallenge with DF-15R
Protocol: Cytolytic activity and cytokine production following the rechallenge were assessed as described above.

[5] = system: K562.CD19, Raji cells or Granta-519 cells; assay: Cytolytic activity against CD19+ tumor cells, rescue with Compound 2 after chronic stimulation; assay type: cell-based, human; settings: 0.001 μM or 0.01 μM during rechallenge; E:T 1:1
Protocol: Long-term, chronic stimulation was carried out by stimulation of CAR T cells with 30 μg/mL plate-bound anti-idiotypic (anti-ID) antibody for 6 days, substantially as described in Example 22.
The assessed CD19+tumor cells included K562 cells transduced with CD19 (K562.CD19), Raji cells or Granta-519 cells.

OPM-2 = assay: Cytokine production of anti-BCMA CAR T cells incubated with OPM-2 target cells; assay type: cell-based, human
RPMI-8226 [6] = assay: Cytolytic activity against RPMI-8226 after seven days incubation with BCMA-conjugated beads; assay type: cell-based, human
Protocol: Cytolytic activity of CAR+ T cells after incubation with BCMA-conjugated beads was assessed by incubation with the BCMA-expressing target cell line RPMI-8226, which is a BCMA+multiple myeloma cell line. […] The number of viable cells was normalized to cells at day 0 prior to incubation with the RPMI-8226 target cells.

RPMI-8226 [7] = assay: Cytokine production of anti-BCMA CAR T cells incubated with RPMI-8226 target cells; assay type: cell-based, human
Source text: Culture of T cells not expressing the anti-BCMA CAR (mock) was used as a control.

With `Cc1nc2cccc(N)c2c(=O)n1C1CCC(=O)NC1=O` (stereo not drawn) [Compound 1, 3-(5-amino-2-methyl-4-oxo-4H-quinazolin-3-yl)-piperidine-2,6-dione] the EC50 ([1]; Homo sapiens, chronically stimulated CAR-T cells, A549 CD19+ spheroids, read-out: EC50 for effect on tumor volume reduction) was 0.127 µM, the “numbers of CAR-T cells” value ([1]; day 5, 1 μM, fresh and chronically stimulated CAR-T cells) was “increase expansion and/or survival of CAR-T cells” and the “cytokine production (IFN-γ, IL-2, TNF-α)” value ([1]; day 5, long-term stimulated CAR-expressing T cells) was “increased relative to co-cultures containing vehicle control”. For the same compound, the “antigen-specific cytokine production and tumor reduction by chronically stimulated CAR-T cells” value ([1]; rescue treatment) was “restore antigen-specific cytokine production and tumor reduction”, the “cytolytic activity (tumor cell number over time)” value ([2]; 0. and Compound 1 concurrent, 2.5:1 E:T) was “improved” and the “IFN-γ and TNF-α production” value ([2]; 24 hours, both cell lines) was “increased relative to vehicle control”. The “cytokine levels at day 5” value ([3]; concurrent treatment) was “enhanced IFN-γ”, the “tumor spheroid size at day 9” value ([3]; concurrent treatment with long-term stimulation) was “concentration dependent decrease in tumor volume” and the “cytokine levels at day 5” value ([3]; delayed treatment with Compound 1) was “enhanced production of both IFN-γ and TNF-α”. For the same compound, the “tumor spheroid size at day 9” value ([3]; subsequent treatment after long-term stimulation) was “concentration dependent decrease in tumor volume”.
With `O=C1CC[C@H](N2Cc3c(OCc4ccc(CN5CCOCC5)cc4)cccc3C2=O)C(=O)N1` [Compound 2, (S)-3-[4-(4-morpholin-4-ylmethyl-benzyloxy)-1-oxo-1,3-dihydro-isoindol-2-yl]-piperidine-2,6-dione] the “RL tumor cell line sensitivity to monotherapy” value (RL CD19+ tumor cells; 0.01 μM or 0.1 μM doses) was “sensitive”, the “cytolytic CAR T cell function against RL tumor cells” value (RL CD19+ tumor cells; E:T 1:1) was “improved cytolytic CAR T cell function” and the “cytolytic activity and cytokine production of chronically stimulated anti-BCMA CAR T cells” value [4] was “increased cytolytic activity”. The “cytolytic activity (tumor cell number over time)” value [5] was “statistically significant improvement in cytolytic activity”.
`Nc1cccc2c1CN(C1CCC(=O)NC1=O)C2=O` (stereo not drawn) [lenalidomide, 3-(4-amino-1-oxo-1,3-dihydro-2H-isoindol-2-yl)piperidine-2,6-dione] was tested, and the “IFNγ, IL-2 and TNF-α production and/or accumulation” value (OPM-2; 0.01-10 μM, E:T 1:1, 24 hours, dose-dependent) was “enhance”, the “IFN-γ, IL-2 and TNF-α production on co-culture with OPM-2” value (OPM-2; all CAR T donors, concentration-dependent) was “significantly increased” and the “RPMI 8226 target cell viability without CAR T cells” value (RPMI-8226 [6]; 5 μM) was “did not directly influence target cell viability”. For the same compound, the “cytolytic activity of the CAR+ T cells” value (RPMI-8226 [6]; 5 μM preincubation during the seven day bead incubation) was “increased”, the killing activity (RPMI-8226 [6]; lenalidomide present during the cell killing assay) was “did not substantially affect” and the “IL-2, IFNγ and TNF-α in culture supernatants” value (RPMI-8226 [7]; 10 μM, E:T 0.3:1, 48 hours) was “increase”. The “cytokine production in RPMI-8226 co-culture” value (RPMI-8226 [7]; all donors and cytokines) was “significantly increased”.
